In brackets after ≈: the same amount, converted by molar mass. Read-outs that look alike come from different tables or passages of the source.
Experiments:
[1] = target: T1, full-length beta-Catenin (Uniprot ID P35222) (Homo sapiens, UniProt P35222); test: Fluorescence polarization IC50 (beta-catenin / 5FAM-TCF4 10-53 competition); type: binding
T1 construct: 10 nM full-length beta-Catenin (Uniprot ID P35222)
T1 sequence (P35222 1-781): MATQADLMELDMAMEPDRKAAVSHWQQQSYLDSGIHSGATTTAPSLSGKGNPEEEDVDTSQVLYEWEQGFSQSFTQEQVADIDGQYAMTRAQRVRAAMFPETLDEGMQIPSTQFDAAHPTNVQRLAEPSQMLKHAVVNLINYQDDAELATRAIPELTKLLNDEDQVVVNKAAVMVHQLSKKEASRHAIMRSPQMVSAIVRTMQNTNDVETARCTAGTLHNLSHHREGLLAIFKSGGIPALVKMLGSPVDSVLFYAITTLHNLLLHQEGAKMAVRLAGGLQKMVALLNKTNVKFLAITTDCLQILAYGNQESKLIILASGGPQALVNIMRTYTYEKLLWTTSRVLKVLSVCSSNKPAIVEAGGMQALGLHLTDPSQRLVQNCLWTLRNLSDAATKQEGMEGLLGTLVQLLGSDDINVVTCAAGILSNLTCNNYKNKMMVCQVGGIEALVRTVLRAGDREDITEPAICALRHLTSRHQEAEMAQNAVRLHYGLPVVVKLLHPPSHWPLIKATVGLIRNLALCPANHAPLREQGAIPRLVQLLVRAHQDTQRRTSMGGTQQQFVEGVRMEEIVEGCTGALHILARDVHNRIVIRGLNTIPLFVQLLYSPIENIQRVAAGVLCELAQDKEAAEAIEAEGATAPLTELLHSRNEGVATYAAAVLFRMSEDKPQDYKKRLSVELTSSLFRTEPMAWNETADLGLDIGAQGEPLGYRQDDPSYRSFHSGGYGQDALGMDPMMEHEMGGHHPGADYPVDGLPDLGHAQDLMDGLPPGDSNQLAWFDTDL

[2] = CHI Log D procedure; type: physicochemical
[3] = Solubility in PBS; type: physicochemical
Summary of the method: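 PBS sample ultracentrifuged; supernatant run on HPLC vs. 50 μM peptide in DMSO standard. Solubility = (PBS peak area / DMSO peak area) × 50 uM.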

[4] = fluorescence polarization, beta-catenin, read-out: FP EC50
[5] = fluorescence polarization, read-out: beta-Catenin FP IC50

Structure (SMILES)	CHI Log D ([2]; pH 7.4)	Solubility [3] [µM]	IC50 [1, 5] [nM]	chromatographic logD ([2]; pH 7.4, CHI Log D)	Solubility ([3]; Solubility (uM)) [µM]	IC50 ([1]; read-out: FP EC50) [nM]	other results
CC(=O)N1CCC[C@]12CC=CCCCC1(CCCC=CCCCCCC[C@@](C)(C(=O)N[C@@H](Cc3ccccc3)C(=O)N[C@@H](Cc3csc4ccccc34)C(=O)N[C@@H](CCC(N)=O)C(N)=O)NC(=O)[C@H](CC(N)=O)NC(=O)[C@H](Cc3ccccc3)NC(=O)[C@H](C)NC(=O)[C@H](C)NC(=O)[C@H](CC(=O)O)NC(=O)[C@H](CC(=O)O)NC1=O)NC(=O)[C@H](C)NC(=O)[C@H](CC(=O)O)NC2=O (stereo partly drawn) [I-343, Ac-PL3-Asp-Ala-B5-Asp-Asp-Ala-Ala-Phe-Asn-S8-Phe-BztA-Gln-NH2]	1.931	50 (≈ 90.7 µg/mL)					IC50 ([1]; Table E2-1, read-out: beta-Catenin FP IC50): 172 nM; IC50 [1, 4]: 172 nM
CC[C@H](C)[C@@H]1NC(=O)[C@H](CC(=O)O)NC(=O)[C@]2(CC=CCCCC3(CCCC=CCCCCCC[C@@](C)(C(=O)N[C@@H](Cc4ccccc4)C(=O)N[C@@H](Cc4csc5ccccc45)C(=O)N[C@@H](Cc4c[nH]cn4)C(N)=O)NC(=O)[C@H](CC(N)=O)NC(=O)[C@H](Cc4ccccc4)NC(=O)[C@H](C)NC(=O)[C@H](C)NC(=O)[C@H](CCC(=O)O)NC(=O)[C@H](CC(=O)O)NC3=O)NC1=O)CCCN2C(C)=O (stereo partly drawn) [I-472, Ac-PL3-Asp-Ile-B5-Asp-Glu-Ala-Ala-Phe-Asn-S8-Phe-BztA-His-NH2]			62	2.42	36 (≈ 67.6 µg/mL)		
CC[C@H](C)[C@@H]1NC(=O)[C@H](CC(=O)O)NC(=O)[C@]2(CC=CCCCC3(CCCC=CCCCCCC[C@@](C)(C(=O)N[C@@H](Cc4ccccc4)C(=O)N[C@@H](Cc4csc5ccccc45)C(=O)N[C@@H](Cc4c[nH]cn4)C(N)=O)NC(=O)[C@H](CCC(N)=O)NC(=O)[C@H](Cc4ccccc4)NC(=O)[C@H](C)NC(=O)[C@H](C)NC(=O)[C@H](CCC(=O)O)NC(=O)[C@H](CC(=O)O)NC3=O)NC1=O)CCCN2C(C)=O (stereo partly drawn) [I-471, Ac-PL3-Asp-Ile-B5-Asp-Glu-Ala-Ala-Phe-Gln-S8-Phe-BztA-His-NH2]			52	2.43	13 (≈ 24.6 µg/mL)		
CC[C@H](C)[C@@H]1NC(=O)[C@H](CC(=O)O)NC(=O)[C@]2(CC=CCCCC3(CCCC=CCCCCCC[C@@](C)(C(=O)N[C@@H](Cc4ccsc4)C(=O)N[C@@H](Cc4csc5ccccc45)C(N)=O)NC(=O)[C@H](CC(N)=O)NC(=O)[C@H](Cc4ccccc4)NC(=O)[C@H](C)NC(=O)[C@H](C)NC(=O)[C@H](CCC(=O)O)NC(=O)[C@H](CC(=O)O)NC3=O)NC1=O)CCCN2C(C)=O (stereo partly drawn) [I-721, Ac-PL3-Asp-Ile-B5-Asp-Glu-Ala-Ala-Phe-Asn-S8-3Thi-BztA-NH2]	2.722	28 (≈ 48.9 µg/mL)	46			46	
CC(=O)N1CCC[C@]12CC=CCCCC1(CCCC=CCCCCCC[C@@](C)(C(=O)N[C@@H](Cc3ccccc3)C(=O)N[C@@H](Cc3csc4ccccc34)C(=O)N[C@@H](CCC(N)=O)C(N)=O)NC(=O)[C@H](CC(N)=O)NC(=O)[C@H](Cc3ccsc3)NC(=O)[C@H](C)NC(=O)[C@H](C)NC(=O)[C@H](CCC(=O)O)NC(=O)[C@H](CC(=O)O)NC1=O)NC(=O)[C@H](C)NC(=O)[C@H](CC(=O)O)NC2=O (stereo partly drawn) [I-448, Ac-PL3-Asp-Ala-B5-Asp-Glu-Ala-Ala-3Thi-Asn-S8-Phe-BztA-Gln-NH2]	1.976	50 (≈ 91.7 µg/mL)	92			92	
CC(=O)N1CCC[C@]12CC=CCCCC1(CCCC=CCCCOC(=O)N3CC[C@@](C(=O)N[C@@H](Cc4ccsc4)C(=O)N[C@@H](Cc4csc5ccccc45)C(N)=O)(C3)NC(=O)[C@H](CC(N)=O)NC(=O)[C@H](Cc3ccccc3)NC(=O)[C@H](C)NC(=O)[C@H](C)NC(=O)[C@H](CCCNC(N)=O)NC(=O)[C@H](CC(=O)O)NC1=O)NC(=O)[C@H](CC(C)(C)C)NC(=O)[C@H](CC(=O)O)NC2=O (stereo partly drawn) [I-861, Ac-PL3-Asp-Npg-B5-Asp-Cit-Ala-Ala-Phe-Asn-PyrS2-3Thi-BztA-NH2]				2.55	20 (≈ 36.6 µg/mL)		IC50 ([1]; read-out: beta-Catenin FP IC50): 40 nM
CC(=O)N1CCC[C@]12CC=CCCCC1(CCCC=CCCCCOC(=O)N3CC[C@@](C(=O)N[C@@H](Cc4ccsc4)C(=O)N[C@@H](Cc4csc5ccccc45)C(=O)N[C@@H](Cc4c[nH]cn4)C(=O)N[C@@H](C)C(N)=O)(C3)NC(=O)[C@H](CC(N)=O)NC(=O)[C@H](Cc3ccccc3)NC(=O)[C@H](C)NC(=O)[C@H](C)NC(=O)[C@H](CC(=O)O)NC(=O)[C@H](CC(=O)O)NC1=O)NC(=O)[C@H](CC(C)(C)C)NC(=O)[C@H](CC(=O)O)NC2=O (stereo partly drawn) [I-828, Ac-PL3-Asp-Npg-B5-Asp-Asp-Ala-Ala-Phe-Asn-PyrS3-3Thi-BztA-His-Ala-NH2]	2.137	40 (≈ 80.5 µg/mL)					IC50 [1, 4]: 13 nM; IC50 ([1]; read-out: beta-Catenin FP IC50): 13 nM
CC(=O)N1CCC[C@]12CC=CCCCC1(CCCC=CCCCCCC[C@@](C)(C(=O)N[C@@H](Cc3ccccc3)C(=O)N[C@@H](Cc3csc4ccccc34)C(=O)N[C@@H](CCC(N)=O)C(N)=O)NC(=O)[C@H]([C@@H](C)O)NC(=O)[C@H](Cc3ccccc3)NC(=O)[C@H](C)NC(=O)[C@H](C)NC(=O)[C@H](CCC(=O)O)NC(=O)[C@H](CC(=O)O)NC1=O)NC(=O)[C@H](CC(C)C)NC(=O)[C@H](CC(=O)O)NC2=O (stereo partly drawn) [I-623, Ac-PL3-Asp-Leu-B5-Asp-Glu-Ala-Ala-Phe-Thr-S8-Phe-BztA-Gln-NH2]	2.494	44 (≈ 81.7 µg/mL)	103			103	
C[C@@H]1NC(=O)[C@H](C)NC(=O)[C@H](CC(=O)O)NC(=O)[C@H](CC(=O)O)NC(=O)C2(CCCC=CCCCOC(=O)N3CC[C@@](C(=O)N[C@@H](Cc4ccccc4)C(=O)N[C@@H](Cc4csc5ccccc45)C(=O)N[C@@H](Cc4c[nH]cn4)C(N)=O)(C3)NC(=O)[C@H](CC(N)=O)NC(=O)[C@H](Cc3ccccc3)NC1=O)CCCC=CC[C@]1(CCCN1C(=O)CN=[N+]=[N-])C(=O)N[C@@H](CC(=O)O)C(=O)N[C@@H](CC(C)(C)C)C(=O)N2 (stereo partly drawn) [I-1055, AzAc-PL3-Asp-Npg-B5-Asp-Asp-Ala-Ala-Phe-Asn-PyrS2-Phe-BztA-His-NH2]		10 (≈ 19.6 µg/mL)					IC50 ([1]; FP EC50 (nM), fluorescence polarization, beta-catenin): 7 nM; chromatographic logD ([2]; pH 7.4): 2.11
CC(=O)N1CCC[C@]12CC=CCCCC1(CCCC=CCCCOC(=O)N3CC[C@@](C(=O)N[C@@H](Cc4ccsc4)C(=O)N[C@@H](Cc4csc5ccccc45)C(=O)N[C@@H](CCC(N)=O)C(=O)N[C@@H](CCCCNC(=O)c4cccc5ccccc45)C(N)=O)(C3)NC(=O)[C@H](CC(N)=O)NC(=O)[C@H](Cc3ccccc3)NC(=O)[C@H](C)NC(=O)[C@H](C)NC(=O)[C@H](CC(=O)O)NC(=O)[C@H](CC(=O)O)NC1=O)NC(=O)[C@H](CC(C)(C)C)NC(=O)[C@H](CC(=O)O)NC2=O (stereo partly drawn) [I-916, Ac-PL3-Asp-Npg-B5-Asp-Asp-Ala-Ala-Phe-Asn-PyrS2-3Thi-BztA-Gln-[1Napc]Lys-NH2]				2.33	45 (≈ 99 µg/mL)		IC50 ([1]; read-out: beta-Catenin FP IC50): 28 nM
CC(=O)N1CCC[C@]12CC=CCCCC1(CCCC=CCCCCCC[C@@](C)(C(=O)N[C@@H](Cc3ccccc3)C(=O)N[C@@H](Cc3csc4ccccc34)C(=O)N[C@@H](CCC(N)=O)C(N)=O)NC(=O)[C@H](CCC(N)=O)NC(=O)[C@H](Cc3ccccc3)NC(=O)[C@H](C)NC(=O)[C@H](C)NC(=O)[C@H](CCC(=O)O)NC(=O)[C@H](CC(=O)O)NC1=O)NC(=O)[C@H](CC(F)(F)F)NC(=O)[C@H](CC(=O)O)NC2=O (stereo partly drawn) [I-501, Ac-PL3-Asp-F3CA-B5-Asp-Glu-Ala-Ala-Phe-Gln-S8-Phe-BztA-Gln-NH2]	2.138	49 (≈ 93.5 µg/mL)	94			94	
CC[C@H](C)[C@@H]1NC(=O)[C@H](CC(=O)O)NC(=O)[C@]2(CC=CCCCC3(CCCC=CCCCCCC[C@@](C)(C(=O)N[C@@H](Cc4ccccc4)C(=O)N[C@@H](Cc4csc5ccccc45)C(=O)N[C@@H](CCC(N)=O)C(N)=O)NC(=O)[C@H](CC(N)=O)NC(=O)[C@H](Cc4ccccc4)NC(=O)[C@H](C)NC(=O)[C@H](C)NC(=O)[C@H](CC(=O)O)NC(=O)[C@H](CC(=O)O)NC3=O)NC1=O)CCCN2C(C)=O (stereo partly drawn) [I-467, Ac-PL3-Asp-Ile-B5-Asp-Asp-Ala-Ala-Phe-Asn-S8-Phe-BztA-Gln-NH2]	2.255	50 (≈ 92.8 µg/mL)	44			44	

Reference: US20240116985A1, “STAPLED PEPTIDES AND METHODS THEREOF” (priority 2020, published 2024)
